The source of these data is PubChem BioAssay AID272 (DTP/NCI, 2004).

This experiment relates to Lewis lung carcinoma i.m., BDF1 mice, T/C %. Briefly: NCI In Vivo Anticancer Drug Screen. Data for tumor model Lewis Lung Carcinoma (intramuscular) in B6D2F1 (BDF1) mice. The procedure, abridged: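 Compound given to mice with transplantable tumours; survival or tumour size compared against the vehicle control group, reported as T divided by C.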

Where “and” joins values, the source holds several entries; their conditions need not be identical. Equal values may be shown once. Records with an inconclusive call do not appear.

Consider `CC1CCC(NC(=O)N(CCCl)N=O)CC1` (centres undefined), for which the T/C (endpoint: mean tumor weight, dose: 3.12 mg/kg/injection, schedule: Q01DX011 (ip), vehicle: saline, higher = larger tumour) was 83 % of control; the T/C (endpoint: mean tumor weight, dose: 3.12 mg/kg/injection, schedule: Q06HX008 (ip), vehicle: saline, higher = larger tumour) was 80 % of control; the T/C (endpoint: mean tumor weight, dose: 6.25 mg/kg/injection, schedule: Q01DX011 (ip), vehicle: saline, higher = larger tumour) was 63 % of control; the T/C (endpoint: mean tumor weight, dose: 6.25 mg/kg/injection, schedule: Q06HX004 (ip), vehicle: saline, higher = larger tumour) was 41 % of control; the T/C (endpoint: mean tumor weight, dose: 6.25 mg/kg/injection, schedule: Q06HX008 (ip), vehicle: saline, higher = larger tumour) is 93 % of control; the T/C (endpoint: mean tumor weight, dose: 8.4 mg/kg/injection, schedule: Q01DX001 (sc), vehicle: Klucel (hydroxypropylcellulose) (HPC), higher = larger tumour) was 111 % of control. For the same compound, the T/C is, setting by setting: (endpoint: mean tumor weight, dose: 12.5 mg/kg/injection, schedule: Q01DX001 (ip), vehicle: saline, higher = larger tumour) 76 % of control; (endpoint: mean tumor weight, dose: 12.5 mg/kg/injection, schedule: Q06HX008 (ip), vehicle: saline, higher = larger tumour) 11 % of control; (endpoint: mean tumor weight, dose: 12.5 mg/kg/injection, schedule: Q08DX002 (ip), vehicle: saline, higher = larger tumour) 99 % of control; (endpoint: mean tumor weight, dose: 14.0 mg/kg/injection, schedule: Q01DX001 (sc), vehicle: Klucel (hydroxypropylcellulose) (HPC), higher = larger tumour) 56 % of control; (endpoint: mean tumor weight, dose: 23.0 mg/kg/injection, schedule: Q01DX001 (sc), vehicle: Klucel (hydroxypropylcellulose) (HPC), higher = larger tumour) 35 % of control; (endpoint: mean tumor weight, dose: 25.0 mg/kg/injection, schedule: Q01DX001 (ip), vehicle: saline, higher = larger tumour) 38 % of control. Besides, the T/C runs as follows: (endpoint: mean tumor weight, dose: 25.0 mg/kg/injection, schedule: Q08DX002 (ip), vehicle: saline, higher = larger tumour) 30 % of control; (endpoint: mean tumor weight, dose: 39.0 mg/kg/injection, schedule: Q01DX001 (sc), vehicle: Klucel (hydroxypropylcellulose) (HPC), higher = larger tumour) 21 % of control; (endpoint: mean tumor weight, dose: 50.0 mg/kg/injection, schedule: Q01DX001 (ip), vehicle: saline, higher = larger tumour) 12 % of control; (endpoint: mean tumor weight, dose: 50.0 mg/kg/injection, schedule: Q08DX002 (ip), vehicle: saline, higher = larger tumour) 8 % of control; (endpoint: median survival time, dose: 1.0 mg/kg/injection, schedule: Q01DX009 (ip), vehicle: saline + alcohol, higher = longer survival) 112 % of control; (endpoint: median survival time, dose: 2.5 mg/kg/injection, schedule: Q01DX015 (ip), vehicle: saline, higher = longer survival) 111 % of control. The T/C (endpoint: median survival time, dose: 3.12 mg/kg/injection, schedule: Q01DX017 (ip), vehicle: saline, higher = longer survival) is 100 % of control; the T/C (endpoint: median survival time, dose: 3.12 mg/kg/injection, schedule: Q06HX012 (ip), vehicle: saline, higher = longer survival) was 97 % of control; the T/C (endpoint: median survival time, dose: 4.0 mg/kg/injection, schedule: Q01DX009 (ip), vehicle: saline + alcohol, higher = longer survival) was 104 % of control and 118 % of control; the T/C (endpoint: median survival time, dose: 4.0 mg/kg/injection, schedule: Q01DX011 (ip), vehicle: saline with Tween-80, higher = longer survival) is 100 % of control and 114 % of control; the T/C (endpoint: median survival time, dose: 5.0 mg/kg/injection, schedule: Q01DX015 (ip), vehicle: saline, higher = longer survival) was 97 % of control and 107 % of control; the T/C (endpoint: median survival time, dose: 6.25 mg/kg/injection, schedule: Q06HX004 (ip), vehicle: saline, higher = longer survival) is 106 % of control. Further, the T/C is, setting by setting: (endpoint: median survival time, dose: 6.3 mg/kg/injection, schedule: Q01DX015 (ip), vehicle: saline, higher = longer survival) 95 % of control; (endpoint: median survival time, dose: 7.5 mg/kg/injection, schedule: Q07DX003 (ip), vehicle: saline, higher = longer survival) 90 % of control; (endpoint: median survival time, dose: 7.9 mg/kg/injection, schedule: Q01DX015 (ip), vehicle: saline, higher = longer survival) 90 % of control; (endpoint: median survival time, dose: 8.0 mg/kg/injection, schedule: Q01DX009 (ip), vehicle: saline + alcohol, higher = longer survival) 156 % of control; (endpoint: median survival time, dose: 8.4 mg/kg/injection, schedule: Q01DX001 (sc), vehicle: Klucel (hydroxypropylcellulose) (HPC), higher = longer survival) 114 % of control; (endpoint: median survival time, dose: 10.0 mg/kg/injection, schedule: Q01DX001 (ip), vehicle: saline + alcohol, higher = longer survival) 116 % of control. Besides, the T/C is, setting by setting: (endpoint: median survival time, dose: 12.5 mg/kg/injection, schedule: Q01DX001 (ip), vehicle: saline, higher = longer survival) 104 % of control; (endpoint: median survival time, dose: 12.5 mg/kg/injection, schedule: Q06HX004 (ip), vehicle: saline, higher = longer survival) 158 % of control; (endpoint: median survival time, dose: 12.5 mg/kg/injection, schedule: Q06HX012 (ip), vehicle: saline, higher = longer survival) 93 % of control; (endpoint: median survival time, dose: 12.5 mg/kg/injection, schedule: Q08DX003 (ip), vehicle: saline, higher = longer survival) 108 % of control; (endpoint: median survival time, dose: 14.0 mg/kg/injection, schedule: Q01DX001 (sc), vehicle: Klucel (hydroxypropylcellulose) (HPC), higher = longer survival) 158 % of control; (endpoint: median survival time, dose: 14.0 mg/kg/injection, schedule: Q07DX003 (ip), vehicle: saline, higher = longer survival) 104 % of control. Moreover, the T/C (endpoint: median survival time, dose: 15.0 mg/kg/injection, schedule: Q07DX003 (ip), vehicle: saline, higher = longer survival) is 90 % of control; the T/C (endpoint: median survival time, dose: 20.0 mg/kg/injection, schedule: Q01DX001 (ip), vehicle: saline + alcohol, higher = longer survival) is 92 % of control; the T/C (endpoint: median survival time, dose: 23.0 mg/kg/injection, schedule: Q01DX001 (sc), vehicle: Klucel (hydroxypropylcellulose) (HPC), higher = longer survival) was 177 % of control; the T/C (endpoint: median survival time, dose: 23.0 mg/kg/injection, schedule: Q07DX003 (ip), vehicle: saline, higher = longer survival) was 112 % of control; the T/C (endpoint: median survival time, dose: 24.0 mg/kg/injection, schedule: Q01DX001 (ip), vehicle: saline, higher = longer survival) was 102 % of control; the T/C (endpoint: median survival time, dose: 24.0 mg/kg/injection, schedule: Q07DX003 (ip), vehicle: saline, higher = longer survival) is 175 % of control. For the same compound, the T/C (endpoint: median survival time, dose: 25.0 mg/kg/injection, schedule: Q01DX001 (ip), vehicle: saline, higher = longer survival) is 122 % of control; the T/C (endpoint: median survival time, dose: 25.0 mg/kg/injection, schedule: Q08DX003 (ip), vehicle: saline, higher = longer survival) was 91 % of control; the T/C (endpoint: median survival time, dose: 30.0 mg/kg/injection, schedule: Q01DX001 (ip), vehicle: saline + alcohol, higher = longer survival) is 92 % of control; the T/C (endpoint: median survival time, dose: 30.0 mg/kg/injection, schedule: Q01DX001 (ip), vehicle: saline, higher = longer survival) was 197 % of control; the T/C (endpoint: median survival time, dose: 30.0 mg/kg/injection, schedule: Q07DX003 (ip), vehicle: saline, higher = longer survival) was 197 % of control and 204 % of control; the T/C (endpoint: median survival time, dose: 30.0 mg/kg/injection, schedule: Q14DX002 (ip), vehicle: saline, higher = longer survival) was 187 % of control. The T/C was 151 % of control (endpoint: median survival time, dose: 39.0 mg/kg/injection, schedule: Q07DX003 (ip), vehicle: saline, higher = longer survival); 151 % of control (endpoint: median survival time, dose: 45.0 mg/kg/injection, schedule: Q01DX001 (ip), vehicle: saline, higher = longer survival); 117 % of control (endpoint: median survival time, dose: 45.0 mg/kg/injection, schedule: Q07DX003 (ip), vehicle: saline, higher = longer survival); 117 % of control (endpoint: median survival time, dose: 45.0 mg/kg/injection, schedule: Q14DX002 (ip), vehicle: saline, higher = longer survival); 181 % of control (endpoint: median survival time, dose: 50.0 mg/kg/injection, schedule: Q01DX001 (ip), vehicle: saline, higher = longer survival); 100 % of control (endpoint: median survival time, dose: 56.0 mg/kg/injection, schedule: Q07DX003 (ip), vehicle: saline, higher = longer survival).
Regarding `Cc1c2c(cc3c1[nH]c1ccccc13)C(c1ccc(Cl)cc1)=NCC2`, the T/C reads like this: (endpoint: mean tumor weight (est.), dose: 75.0 mg/kg/injection, schedule: Q01DX011 (ip), vehicle: saline with Tween-80, higher = larger tumour) 54 % of control; (endpoint: mean tumor weight (est.), dose: 150.0 mg/kg/injection, schedule: Q01DX011 (ip), vehicle: saline with Tween-80, higher = larger tumour) 41 % of control; (endpoint: mean tumor weight (est.), dose: 300.0 mg/kg/injection, schedule: Q01DX011 (ip), vehicle: saline with Tween-80, higher = larger tumour) 40 % of control; (endpoint: median survival time, dose: 75.0 mg/kg/injection, schedule: Q01DX011 (ip), vehicle: saline with Tween-80, higher = longer survival) 100 % of control; (endpoint: median survival time, dose: 150.0 mg/kg/injection, schedule: Q01DX011 (ip), vehicle: saline with Tween-80, higher = longer survival) 92 % of control; (endpoint: median survival time, dose: 300.0 mg/kg/injection, schedule: Q01DX011 (ip), vehicle: saline with Tween-80, higher = longer survival) 111 % of control.
`O=c1[nH]c(=O)n(C2CC(O)C(CO)O2)cc1C(F)(F)F` (centres undefined): the T/C is 101 % of control (endpoint: median survival time, dose: 2.5 mg/kg/injection, schedule: Q01DX009 (ip), vehicle: saline, higher = longer survival); 93 % of control (endpoint: median survival time, dose: 10.0 mg/kg/injection, schedule: Q01DX009 (ip), vehicle: saline, higher = longer survival); 94 % of control and 101 % of control (endpoint: median survival time, dose: 20.0 mg/kg/injection, schedule: Q01DX009 (ip), vehicle: saline, higher = longer survival).
For the compound `O=C1CN(CCN2CC(=O)NC(=O)C2)CC(=O)N1`, the T/C is, setting by setting: (endpoint: mean tumor weight, dose: 25.0 mg/kg/injection, schedule: Q01DX011 (ip), vehicle: steriod suspending solution, higher = larger tumour) 68 % of control and 80 % of control; (endpoint: median survival time, dose: 12.5 mg/kg/injection, schedule: Q01DX011 (ip), vehicle: steriod suspending solution, higher = longer survival) 111 % of control and 117 % of control; (endpoint: median survival time, dose: 25.0 mg/kg/injection, schedule: Q01DX011 (ip), vehicle: steriod suspending solution, higher = longer survival) 110 % of control and 114 % of control.
Regarding `O=C1C=C(SCCO)C(=O)c2ccccc21`, the T/C was 52 % of control (endpoint: mean tumor weight (est.), dose: 0.75 mg/kg/injection, schedule: Q01DX011 (ip), vehicle: other, higher = larger tumour); 40 % of control (endpoint: mean tumor weight (est.), dose: 1.5 mg/kg/injection, schedule: Q01DX011 (ip), vehicle: other, higher = larger tumour); 18 % of control (endpoint: mean tumor weight (est.), dose: 3.0 mg/kg/injection, schedule: Q01DX011 (ip), vehicle: other, higher = larger tumour); 100 % of control (endpoint: median survival time, dose: 0.75 mg/kg/injection, schedule: Q01DX011 (ip), vehicle: other, higher = longer survival); 92 % of control (endpoint: median survival time, dose: 1.5 mg/kg/injection, schedule: Q01DX011 (ip), vehicle: other, higher = longer survival); 100 % of control (endpoint: median survival time, dose: 3.0 mg/kg/injection, schedule: Q01DX011 (ip), vehicle: other, higher = longer survival).
Regarding `NCCCNCCSP(=O)(O)O`, the T/C by setting is: (endpoint: median survival time, dose: 300.0 mg/kg/injection, schedule: Q01DX001 (ip), vehicle: saline, higher = longer survival) 102 % of control; (endpoint: median survival time, dose: 500.0 mg/kg/injection, schedule: Q01DX001 (ip), vehicle: saline, higher = longer survival) 92 % of control.
